Structures are written as SMILES. Entries after “also recorded” stand apart in the source; their conditions may differ.

The values that follow come from US8404665B2, “In vivo use of glutathione S-transferase activated nitric oxide donors” (University of Utah Research Foundation, priority 2002, dated 2013).

Data set [1] has as its system HL-60 cells. The experiment in a line: Apoptosis in HL-60 cells by flow cytometry (sub-G0 fraction). The format is cell-based, human. The note with it: for percentage of apoptotic cells (sub-G0 fraction): three days post-addition, control 7 percent. Here is the method: (§1) Cell Lines and Culture Conditions. HL-60, DLD1, and U937 cells were obtained from ATCC (Rockville, Md.). Meth A cells were from Dr. Wolfram Samlowski (University of Utah, Salt Lake City, Utah). The PPC-1 cell line was provided by Dr. Graeme Bolger (University of Alabama, Birmingham, Ala.). For the cell growth and apoptosis experiments, cells were cultured at a density of 150,000 cells/ml in RPMI-1640 with 10% fetal bovine serum at 37° C. in a 5% CO2 humidified atmosphere. Agents were added at the indicated concentrations 24 h after culture initiation. At the indicated time intervals, cells were harvested and washed twice in phosphate buffered saline (PBS) prior to processing for analysis of growth, differentiation, and apoptosis.
Cell Growth, Differentiation and Apoptosis Assays. The number of viable cells was determined using the MTT assay according to the manufacturer's protocol (Promega, Madison, Wis.) or using a Coulter counter. Briefly, a MTT assay is an analytical technique that uses the dye dimethylthiazolyl-diphenyltetrazolium (MTT) which turns from yellow to brownish-purple as it is reduced in the mitochondria of living cells. The assay is useful in calorimetric quantitation of cell viability and proliferation. In contrast, cell differentiation was evaluated using Wright and Non-Specific Esterase (NSE) staining of cells collected on microscope slides by cytospin as previously described (Magrinat, G. et al. (1992) Blood 80: 1880-1884). Apoptosis was assayed by flow cytometry and by determining DNA fragmentation using agarose gel electrophoresis as previously described (Shami, P. J. et al. (1998) Leukemia 12: 1461-1466). For the flow cytometry assay, we used the propidium iodide staining method of Nicoletti et al. (Nicoletti, I. et al. (1991) J. Immunol. Methods 139: 271-279).
To determine if JS-K could induce apoptosis in leukemia cells, it was added to HL-60 cells at concentrations of 0.5 and 1.0 μM. Three days post-addition, the percentage of apoptotic cells was determined by measuring the number of cells in the sub-G0 fraction of the cell cycle using flow cytometry. […]

A further data set has as its system Meth A. Put plainly: Meth A solid tumor cell growth. The format is cell-based. How it is done:
as §1
Cell Growth, Differentiation and Apoptosis Assays. The number of viable cells was determined using the MTT assay according to the manufacturer's protocol (Promega, Madison, Wis.) or using a Coulter counter. […] The assay is useful in calorimetric quantitation of cell viability and proliferation. In contrast, cell differentiation was evaluated using Wright and Non-Specific Esterase (NSE) staining of cells collected on microscope slides by cytospin as previously described (Magrinat, G. et al. (1992) Blood 80: 1880-1884). […]

The test system of data set [2] is HL-60 cells. Put plainly: Combination treatment: JS-K pretreatment then etoposide or daunorubicin, MTT. The data set is classed as cell-based, human. The following applies: HL-60, JS-K pretreatment (0.25 μM). Here is the method:
Combination treatment. For combined drug treatment, HL-60 cell lines were pretreated with JS-K (0.25 μM) for 6 h in RPMI 1640 at 37° C. The JS-K-containing culture medium was then removed and replaced with fresh RPMI-1640. Three different concentrations of either etoposide (0.2, 0.3 and 0.4 μM) or daunorubicin (5, 10 and 50 nM) were added to the pretreated HL-60 cells. The cells were incubated at 37° C. for additional 48 hours. Solution of 3-[4,5-dimethylthiazol-2-yl]-2,5-[…] (MTT) tetrazolium salt (1 mg/ml) was added to the cells. The cells were incubated again for 3 h to allow for MTT metabolism to formazan by the succinate-tetrazolim reductase system active only in viable cells. A solution of 0.04 N HCl in isopropyl alcohol was added to stop the MTT assay. The supernatant was then aspirated and 150 μl of trituration was added to dissolve the water-insoluble blue formazan. The optical densities were read on a spectrophotometric plate reader at a single wavelength of 570 nm. The absorbance for control cells was defined as an MTT activity of 100%.

Data set [3] can be described thus: NO release by chemiluminescence detection, GSH without enzyme. The format is physicochemical. How it is done: Measurement of NO Release. Chemiluminescence detection and quantification of NO evolving from the reactions of JS-K were conducted using an NO-specific Thermal Energy Analyzer (Model 502A, Thermedics, Analytical Instrument Division, Waltham, Mass.) essentially as previously described (Keefer, L. K. et al. (1996) Methods Enzymol. 268: 281-293). Briefly, pH 7.4 phosphate buffer containing 1 mM GSH was sparged with inert gas until a steady detector response was established. Where indicated, GSTs were added to a final concentration of 1.67 ug of enzyme/ml. […] The resulting curve was integrated to quantify the amount of NO released/mole of compound.
These reactions led to NO generation as predicted as indicated by purging gases from the solution as they formed into an NO-specific chemiluminescence detector. […] In the absence of enzyme, NO release began immediately upon adding GSH, increasing in rate until plateauing at 8 min and integrating to a total of 1.1 mol of NO per mol of JS-K within 43 min of mixing.

The conditions of data set [4]: mouse, in vivo, iv.
Data set [5] concerns HL-60 cells. The experiment in a line: Systemic leukemia model: NOD/SCID mice injected intravenously with HL-60 cells. The data set is classed as in vivo. How it is done:
A second experiment was conducted with NOD/SCID mice injected intravenously with HL-60 cells. Control mice appeared to develop systemic disease as evidenced by large abdominal lymph nodes and leukemia cell engraftment in the liver, spleen and bone marrow. Treated mice were administered 1 μmol/kg intravenous JS-K for three to four weeks beginning one day after inoculation. Control mice were treated with vehicle. A human-specific anti-CD15 antibody was utilized in flow cytometric analysis to identify the leukemic cells. […] Additionally, the number and size of enlarged abdominal lymph nodes appeared to be smaller in these animals.

The nature of the next data set: Hydrolysis of JS-K. The format is physicochemical. How it is done: For increased JS-K consumption rate at an initial concentration of 50 uM in 0.1 M phosphate (pH=7.4) at 37° C. as a function of increasing GSH concentration. The value of k1 obtained from the intercept appeared to be in statistical agreement with the rate constant for JS-K hydrolysis (1×10^−6 s^−1) measured separately in the absence of GSH. The small amount of the hydrolysis product (2,4-dinitrophenol) (data not shown) was apparently formed in the dimethyl sulfoxide stock solution, which in this case had been stored in the refrigerator with intermittent use during several weeks.

Setting [6] is: 1 μmol/kg intravenous for three to four weeks, versus controls.

Consider `CCOC(=O)N1CCN(/[N+]([O-])=N/Oc2ccc([N+](=O)[O-])cc2[N+](=O)[O-])CC1` [JS-K, O^2-(2,4-dinitrophenyl) 1-[(4-ethoxycarbonyl)piperazin-1-yl]diazen-1-ium-1,2-diolate], for which the “percentage of apoptotic cells (sub-G0 fraction)” value in the data set on HL-60 cells [1] (0.5 μM) amounted to 27±3%. For the same molecule, the “percentage of apoptotic cells (sub-G0 fraction)” value with HL-60 cells [1] (1.0 μM) worked out at 43±2%. The “percentage of apoptotic cells” value in the data set with HL-60 cells [1] (HL-60, flow cytometry, co-administration of C-VAD-FMK and JS-K, p=0.44 vs untreated) is reported as 2.65+/−0.28%. The “IC50 relative to leukemia lines” value in the data set with Meth A is “an order of magnitude greater than those for the two leukemia lines”. Also, in the data set on HL-60 cells [2], the “effect of JS-K pretreatment on daunorubicin and etoposide” value was “additive effect; also recorded: significantly enhanced efficacy of daunorubicin and etoposide”. In data set [3] (1 mM GSH, no enzyme), the “time at which NO release rate plateaued” value turned out to be 8 min. Also, in data set [3] (1 mM GSH, pH 7.4 phosphate, 0.67 uM JS-K, no enzyme, within 43 min of mixing), the “total NO released” value is 1.1 mol of NO per mol of JS-K. Besides, the “NO detection without GSH” value in data set [3] (pH 7.4 phosphate/0.67 uM JS-K solution) is “did not appear to be detected until 1 mM GSH was added”. Also, the “peak blood concentration the dose would achieve” value in data set [4] was “approximately 68 μM”. Also, in the data set with HL-60 cells [5] (1 μmol/kg intravenous), the “colonies from cultured bone marrow in human hematopoietic cell-selective semi-solid medium” value is “few if any colonies of cancerous cells”. Also, in the data set with HL-60 cells [5] (setting [6]), the “leukemic cell engraftment (anti-CD15 flow cytometry)” value was “decreased leukemic cell engraftment in the bone marrow and liver”; the “number and size of enlarged abdominal lymph nodes” value is on record as “smaller”. Further, the “treated mice with almost no evidence of disease” value in the data set on HL-60 cells [5] (three to four weeks after inoculation) is recorded as “Two of the five”. Besides, the resistance to hydrolysis entry in “Hydrolysis of JS-K” (0.1 M phosphate pH 7.4, 37° C.) is listed as “resistant to simple hydrolysis”. In “Hydrolysis of JS-K” (measured separately in the absence of GSH, pH 7.4, 37° C.), the “rate constant for JS-K hydrolysis” value stood at 1e-06 s⁻¹. Further, in “Hydrolysis of JS-K” (pH=12), the hydrolysis entry is given as “much more facile”.
